Measurements: patent publication US5958966A, “Treatment of aberrant cellular states with biomodulators” (University of New Mexico, priority 1995, dated 1999)
Entries after “also recorded” stand apart in the source; their conditions may differ.

Key:
canine glioma (CG) cells = experiment: chromium-release cell-mediated lympholysis (CML) vs. CG tumor in a dog; type: in vivo; settings: for CG-specific CML in words: dog
Description: Cellular immune response reflected the results reported in III, 1 above. […] This also is in the absence of CG antigen exposure. […] Thus, both cellular and humoral immunity appear to be modulatable in the absence of antigen by the compounds of the instant invention.

[1] = test system: human peripheral blood leukocytes (HPBL); experiment: stimulation / inhibition of IgG production in HPBL; type: cell-based; settings: HPBL
Description: Human peripheral blood leukocytes were cultured in a standard tissue culture medium. Aliquots of these cultured cells (1,000,000 cells/ml medium) were cultured for 6 hours, and the specified amount of Formula II compound was added; the cells were then cultured for an additional 90 hours. Sheep red blood cells (SRBC) conditioned with class-specific (IpG) goat anti-human antiserum (1:400) for 2 hours; then guinea pig complement (2%) for 2 hours were conjugated to Protein A as described in detail in Radioimmunoimaging and Radioimmunotherapy, Eds. S. W. Burchiel and B. A. Rhodes, Elsevier Science Publishing; New York, 1983, pp. 125-127, incorporated herein by reference.

canine glioma cells = experiment: canine glioma tumor inhibition in nude rats (Formula II compound); type: in vivo, nude rat
Description: Fifty four nude rats (Harlan) were injected in the right flank with 5×10^6 canine glioma cells. Animals at the time of injection were between 52 and 63 days old and weighed approximately 200 g. The rats were divided into 7 groups, each group having a total number of 7 rats except for the control group, which totalled 12 animals. Compound IIc' was administered to the experimental animals at one of the following doses for each experimental group: 100 μg/kg, 10 μg/kg, 1 μg/kg, 0.1 μg/kg, 0.01 μg/kg and 0.001 μg/kg (phosphate buffer saline, M, W, F, I.P.). The control animals were injected with PBS (phosphate buffered saline) only. The volume of each injection was 100 μl. The injections of drug were simultaneously begun with injection of tumor cells. The animals were injected with the appropriate dosage of drug (1 ng/kg to […]) by I. P. injection and tumor length, width and depth were measured using caliphers each Monday, Wednesday and Friday (M, W, F) morning for approximately 9 weeks. Each point on the graphs represents the total of all rats for each group. […] The data were normalized for the greater number of control animals by multiplying the total tumor volume for the control animals by 7/12.

anti-CG IgG antibodies = experiment: tumor-specific (anti-CG) antibody production in a dog; type: in vivo

CC(C)OC(=O)C[C@H](O)C[C@@H](O)/C=C/c1c(C(C)C)nc(-c2ccccc2)n1-c1ccc(F)cc1 [Compound IIc']
slope M of linear regression of toxicity (canine glioma (CG) cells; December 14, 1987): 0.05
slope M of linear regression of toxicity (canine glioma (CG) cells; February 9, 1988): 0.35
slope M of linear regression of toxicity (canine glioma (CG) cells; February 17, 1988): 0.75
slope M of linear regression of toxicity (canine glioma (CG) cells; March 31, 1988): 0.05
CG-specific CML in words (canine glioma (CG) cells): significant increase in CML; also recorded: large increase in the CML reactivity; also recorded: CML reactivity again returned to baseline
CG-specific CML in words (canine glioma (CG) cells; listed as IIIc'): only baseline levels of CG-specific CML were present
IgG production in words [1]: stimulated IgG production
Inhibitory Concentration (nonspecific IgG production below normal) [1]: none found
optimal dose in vitro ([1]; immune stimulation): 100 pM
cytostatic activity at other doses (canine glioma cells; 10 and 100 μg/kg or 1 ng/kg): Little or no cytostatic activity
most effective dosage for inhibition (canine glioma cells; nude rats, I.P., M, W, F): 100 ng/kg
CG-specific antibody titer in words (anti-CG IgG antibodies): titers of antibody increased over the control antibody titer significantly; also recorded: CG-specific antibody (IgG) production increased significantly; also recorded: rapidly (within a few days) reverted to baseline control levels
